{"source": "patent US9072770B2", "about": "“Aqueous extracts of Anoectochilus spp. kinsenoside and pharmaceutical compositions useful for hepatoprotection” (CHINA MEDICAL UNIVERSITY, priority 2007, dated 2015)", "test_system": "BALB/c normal liver (BNL) cells", "experiment": "Hydrogen peroxide cytotoxicity assay in BNL cells", "format": "cell-based, BALB/c mouse", "settings": "then H2O2 2 hours, control 0.69", "procedure": "BALB/c normal liver (BNL) cells were purchased from Bioresources Collection and Research Center (Hsinchu, Taiwan). Cell lines were grown in DMEM (Dulbecco's modified Eagle's medium) with 50 IU/mL penicillin, 50 μg/mL streptomycin, 50 IU/mL amphotericin B and 10% fetal bovine serum. For cytotoxicity assays, cells (5×10^3 cells/well) were plated into 96-well culture plates and allowed to attach overnight. The medium was replaced with fresh medium (as control) or with various concentrations of AFEW, AFEW-1 or kinsenoside for 16 hours. The cells were then washed with PBS and further treated with various doses of hydrogen peroxide (0.125-4.00 μM) for 2 hours. After H2O2 cytotoxic treatment, the percentage of viable cells was determined using a CellTiter 96 Aqueous Non-Radioactive Cell Proliferation Assay kit (Promega, Madison, Wis., USA). Reagent solution (20 μt) was added to each well and incubated at 37° C. in humidified 5% CO2 for 1 hour. Then, the absorbance was measured at 490 nm using a 96-well plate reader (Multiskan Spectrum, Labsystem, Thermo Electron Corporation, Finland).\nData from in vivo experiments were treated by one-way analysis of variance and Dunnett's test was applied. The significance level was set at p[…]00.05. […]", "note": "Marks after values point to notes of the source that are not given here.", "data": [{"smiles": "O=C1C[C@@H](OC2OC(CO)C(O)C(O)C2O)CO1", "note": "(stereo partly drawn) [Kinsenoside, 3-(R)-3-β-D-glucopyranosyloxybutanolide]", "values": [{"measurement": "H2O2 LD50 (95% confidence limits)", "setting": "pretreatment 20 μg/mL for 16 hours", "result": "0.81 (0.74-0.88)^a μM"}, {"measurement": "H2O2 LD50 (95% confidence limits)", "setting": "pretreatment 40 μg/mL for 16 hours", "result": "1.17 (1.01-1.36)^a μM"}]}]}
